Results published in PMC6891328, “Design, Synthesis and Biological Evaluation of Diosgenin-Amino Acid Derivatives with Dual Functions of Neuroprotection and Angiogenesis” (Molecules, 2019).
“And” between values parts separate entries of the source, which are not always exact repeats. Identical values can stand only once. Like-named read-outs stand apart in the source and are kept apart here.

Legend:
[1] = Biosafety (cytotoxicity) evaluation on H9c2 cells (MTT); format: cell-based, rat; conditions: rat, H9c2 cells; H9c2, 50 μM, MTT; read-out: cell viability
Method: (§1) Compounds DG-13 and DG-15 dissolved in DMSO were added to each well with required concentrations (3.125, 6.25, 12.5, 25, 50 µM). Then the control group were treated with the same volume of medium. The non-administered group were not treated (no cells and no medium). Then the sterile plates were further incubated for 4 h, following MTT addition. After 4 h, supernatant liquor was removed into the waste and all of the wells were then placed into the fresh DMSO (0.15 mL). The absorbance was measured using BIORAD 550 spectrophotometer with the emission wavelengths of 490 nm. Each data was measured three times in parallel survival fraction of cells, calculated by the equation: [OD490 (Drug group) − OD490 (non-administered group)]/[OD490 (Control group) − OD490 (non-administered group)] ×100%.

H9c2 cells = test: as above; format: cell-based, rat; conditions: for cytotoxicity (in words): H9c2, 3.125-50 μM
Method: as §1

SH-SY5Y cells [2] = conditions: for EC50: read-out: EC50 (neuroprotection), SH-SY5Y damaged by TBHP, 24 h, MTT, n = 3
SH-SY5Y cells [3] = test: Morphological observation of TBHP-damaged SH-SY5Y cells by Giemsa and DAPI staining; format: cell-based, human; conditions: TBHP-damaged SH-SY5Y, 10, 20, 40 μM
Method: Afterwards, the medium containing compound DG-15 were added to the cultures for 24 h and the concentration range of the examined compounds was 10, 20 and 40 µM. Then 0.1 mL TBHP was used to damage cells and the plate was cultured for further 24 h. Removing the culture medium, washing twice with PBS and fixing cells with 2 mL methanol for 2 min and 1 mL paraformaldehyde for 15 min respectively and washed with fresh PBS again. Giemsa solution or DAPI was added to stain the fixed cells for 2 min and protected from light. Finally, the cells ware washed with water and were observed under inverted fluorescent microscope.

chorioallantoic membrane = test: Angiogenesis in chorioallantoic membrane (CAM) model; format: in vivo, chicken; conditions: new vessels inner diameter < 100 μm
Method: The CAM was examined as a predictive model for the angiogenic activity studies of compounds DG-15. The wide end of the fresh fertilized egg was placed upward in an incubator at 37 °C with a relative humidity of 60%. All the eggs were turned every two hours to prevent from sticking to each other. Compound DG-15 was dissolved with acetone at a concentration of 1 mg/mL and 4 mg/mL and then 5 µL solution was transferred to gelatin sponge using a pipette respectively. The sham treatment group was added to the same volume of saline. Disinfected with UV lamp for 30 min. After 7 days, the broader said of eggs was disinfected with 70% alcohol, then a 30-mm-diameter window was carefully opened in the shell to reduce the chamber pressure before removed the upper shell membrane with tweezers. In addition, the non-fertilized oocytes and unhealthy developed embryos were thrown away. Then the gelatin sponge was embedded into the allantoic membrane and the window was sealed with adhesive tape, with the eggs being returned to the incubator. The eggs were then incubated 3 days after administration, fixed with methanol-acetone (1:1) for 10 min and repeated four times. […] The vascular growth was analyzed with a dissecting microscope and counted by software of Image Professional Plus 5.0 software (Media Cybernetics, Inc, MD, USA)

Structure (SMILES)	EC50 (SH-SY5Y cells [2])	melting point [°C]	other results
C[C@@H]1CC[C@@]2(OC1)O[C@H]1C[C@H]3[C@@H]4CC=C5C[C@@H](O)CC[C@]5(C)[C@H]4CC[C@]3(C)[C@H]1[C@@H]2C [DG, diosgenin]	> 50 µM	–	viability at 50 µM [1]: ~60%; cytotoxicity (in words) (H9c2 cells; MTT): toxic under all treated groups; EC50 (SH-SY5Y cells [2]; listed as diosgenin): > 40 µM
CC1CCC2(OC1)OC1CC3C4CC=C5CC(OC(=O)CNC(=O)OC(C)(C)C)CCC5(C)C4CCC3(C)C1C2C (stereo not drawn) [DG-1, 3β-(N-Boc-glycine)-diosgenin]	> 50 µM	218.7	–
CC1CCC2(OC1)OC1CC3C4CC=C5CC(OC(=O)C(C)NC(=O)OC(C)(C)C)CCC5(C)C4CCC3(C)C1C2C [DG-2, 3β-(N-Boc-L-alanine)-diosgenin]	–	218.9	–
CC1CCC2(OC1)OC1CC3C4CC=C5CC(OC(=O)CN(C)C(=O)OC(C)(C)C)CCC5(C)C4CCC3(C)C1C2C (stereo not drawn) [DG-3, 3β-(N-Boc-sarcosine)-diosgenin]	15.2 ± 0.96 µM	–	–
CC1CCC2(OC1)OC1CC3C4CC=C5CC(OC(=O)C6CCCN6C(=O)OC(C)(C)C)CCC5(C)C4CCC3(C)C1C2C [DG-4, 3β-(N-Boc-L-proline)-diosgenin]	23.8 ± 6.83 µM	183.4	–
CC(C)CC(NC(=O)OC(C)(C)C)C(=O)OC1CCC2(C)C(=CCC3C2CCC2(C)C3CC3OC4(CCC(C)CO4)C(C)C32)C1 [DG-5, 3β-(N-Boc-L-leucine)-diosgenin]	9.51 ± 1.79 µM	–	–
CCC(C)C(NC(=O)OC(C)(C)C)C(=O)OC1CCC2(C)C(=CCC3C2CCC2(C)C3CC3OC4(CCC(C)CO4)C(C)C32)C1 [DG-6, 3β-(N-Boc-L-isoleucine)-diosgenin]	18.5 ± 1.87 µM	–	–
CC1CCC2(OC1)OC1CC3C4CC=C5CC(OC(=O)C(Cc6ccccc6)NC(=O)OC(C)(C)C)CCC5(C)C4CCC3(C)C1C2C [DG-7, 3β-(N-Boc-L-phenylalanine)-diosgenin]	> 50 µM	163.4	–
CC1CCC2(OC1)OC1CC3C4CC=C5CC(OC(=O)C(NC(=O)OCc6ccccc6)C(C)C)CCC5(C)C4CCC3(C)C1C2C [DG-8, 3β-(N-Cbz-L-valine)-diosgenin]	38.1 ± 6.68 µM	158.4	–
CC1CCC2(OC1)OC1CC3C4CC=C5CC(OC(=O)C(CCCCNC(=O)OCc6ccccc6)NC(=O)OCc6ccccc6)CCC5(C)C4CCC3(C)C1C2C [DG-9, 3β-(N-Cbz-L-lysine)-diosgenin]	36.2 ± 8.67 µM	135.8	–
CC1CCC2(OC1)OC1CC3C4CC=C5CC(OC(=O)CN)CCC5(C)C4CCC3(C)C1C2C (stereo not drawn) [DG-10, 3β-(glycine)-diosgenin]	> 50 µM	110.8	–
CC1CCC2(OC1)OC1CC3C4CC=C5CC(OC(=O)C(C)N)CCC5(C)C4CCC3(C)C1C2C [DG-11, 3β-(L-alanine)-diosgenin]	> 50 µM	219.1	–
CNCC(=O)OC1CCC2(C)C(=CCC3C2CCC2(C)C3CC3OC4(CCC(C)CO4)C(C)C32)C1 (stereo not drawn) [DG-12, 3β-(sarcosine)-diosgenin]	> 50 µM	176	–
CC1CCC2(OC1)OC1CC3C4CC=C5CC(OC(=O)C6CCCN6)CCC5(C)C4CCC3(C)C1C2C [DG-13, 3β-(L-proline)-diosgenin]	7.22 ± 1.58 µM	–	survival rate (H9c2 cells; H9c2, 25 μM, MTT): 12%; cytotoxicity (in words) (H9c2 cells; MTT): significantly enhanced compared with diosgenin
CC(C)CC(N)C(=O)OC1CCC2(C)C(=CCC3C2CCC2(C)C3CC3OC4(CCC(C)CO4)C(C)C32)C1 [DG-14, 3β-(L-leucine)-diosgenin]	32.6 ± 0.97 µM	154.4	–
CCC(C)C(N)C(=O)OC1CCC2(C)C(=CCC3C2CCC2(C)C3CC3OC4(CCC(C)CO4)C(C)C32)C1 [DG-15, 3β-(L-isoleucine)-diosgenin]	6.86 ± 0.69 µM	147.1	cytotoxicity (in words) (H9c2 cells; MTT): no cytotoxicity; inhibitory effect on cells (H9c2 cells; H9c2, concentrations below 25 μM): no inhibitory effect; morphological change, DAPI staining (SH-SY5Y cells [3]): the number of SH-SY5Y cells was increasingly larger; morphological change, Giemsa staining (SH-SY5Y cells [3]): the typical signs for apoptosis were reduced; increase of number of blood vessels (chorioallantoic membrane; 1 mg/mL on gelatin sponge): 60.61%; increase of number of blood vessels (chorioallantoic membrane; 4 mg/mL on gelatin sponge): 80.30%
CC1CCC2(OC1)OC1CC3C4CC=C5CC(OC(=O)C(N)Cc6ccccc6)CCC5(C)C4CCC3(C)C1C2C [DG-16, 3β-(L-phenylalanine)-diosgenin]	11.4 µM and 11.2 µM	–	–
CC1CCC2(OC1)OC1CC3C4CC=C5CC(OC(=O)C(N)C(C)C)CCC5(C)C4CCC3(C)C1C2C [DG-17, 3β-(L-valine)-diosgenin]	> 50 µM	139.1	–
CC1CCC2(OC1)OC1CC3C4CC=C5CC(OC(=O)C(N)CCCCN)CCC5(C)C4CCC3(C)C1C2C [DG-18, 3β-(L-lysine)-diosgenin]	> 50 µM	189.4	cytotoxicity seen in neuroprotective activity evaluation (in words) (SH-SY5Y cells [2]; SH-SY5Y, compared with compounds with neutral amino acids): higher cytotoxicity
CC1=NN(c2ccccc2)C(=O)C1 [Edaravone, edaravone, reference compound]	21.6 ± 3.04 µM	–	–
